{"source": "patent US20110165277A1", "about": "“Biological Materials and Uses Thereof” (priority 2008, published 2011)", "key": {"Listeria monocytogenes": {"system": "Listeria monocytogenes", "assay": "Listeria survival in Rusitec (Example 5)", "type": "cell-based", "conditions": "100 μg/ml; 24h after pathogen addition", "experimental": "Volatile fatty acids, methane and bacterial numbers were measured on days 18 and 19 of the experiment. On day 19, Listeria inocula was added and it numbers traced over the last 24 hr of the experiment."}, "[1]": {"assay": "Further sandalwood analogues: volatile fatty acid and methane production (Example 7, Table 14)", "type": "cell-based", "experimental": "(§1) Further testing of sandalwood analogues was conducted following the protocols described in Examples 3 and 5."}, "[2]": {"assay": "Further sandalwood analogues: CH4 per bottle, compound in DMSO or ETOH (Example 7, Table 15)", "type": "cell-based", "conditions": "for CH4: single bottles rep a, b, c, listed as Javanol batch no. 9000699712", "experimental": "as §1"}, "rumen fluid": {"system": "rumen fluid", "assay": "Methane production by buffered rumen fluid, sandalwood oil and synthetic replacements (Example 4)", "type": "cell-based, cow", "conditions": "5, 50 or 100 or 500 pg/ml; 16 hours", "experimental": "Thirty ml of a 33% buffered solution of rumen fluid withdrawn from a rumen canulated cow was incubated with 0.3 g of a 50:50 hay barley mix at 39° C. under anaerobic conditions\nAfter 16 hours the volume of gas produced and the percentage of methane in the headspace was measured and the resultant fermentation fluid was analysed for volatile fatty acids by HPLC.\nSandalwood oil from either Fluka or SAFC and two different batches of Javanol (Givaudan) or a single batch of Santaliff (International Flavors & Fragrances) (both Javanol and Santaliff are artifical Sandalwood replacements) were added in the amount of 5, 50 or 100 or 500 pg/ml to the 30 ml buffered solution of rumen fluid prior to incubation."}, "[3]": {"system": "rumen contents in Rusitec", "assay": "Rusitec with Sandalwood oil and Javanol (Example 5)", "type": "cell-based, cattle", "conditions": "100 μg/ml", "experimental": "The rumen-simulation technique (Rusitec) was used as described by Czerkawski and Breckenridge (1977). The nominal volume in each reaction vessel was 850 ml and the dilution rate was set at 0.88 per day, the infused liquid being artificial saliva (McDougall, Biochem J 1948 43, 99-109) at pH 8.4. Inocula for the fermentation vessels were obtained from a pooled sample (liquid and particulate rumen contents) from three rumen-cannulated cattle fed on a conserved diet. On the first day of the experiment 300 ml of strained rumen fluid, 300 ml of water and 300 ml of artificial saliva were placed in each reaction vessel. Solid rumen contents (80 g) were weighed into a nylon bag and one of these was placed inside the food container in each vessel together with a bag (20 g/d) of a basal diet of grass hay, barley, molasses, soyabean meal and a vitamin and mineral mixture. The food was provided in nylon bags, pore size 50 μm, which were gently agitated in the liquid phase. Two bags were present at any time and one bag was replaced each day to give a 48 h incubation. The bags that were removed from the vessels were placed in plastic bags, and their contents washed and squeezed with 40 ml of artificial saliva. This was done twice for each bag, and the combined washings were poured back into the reaction vessels. Fermentation vessels were flushed with anaerobic grade CO2 before filling, after filling, and then every day during feeding (when the nylon bags with the food were changed). The duration of the experiment was 19 days, during which four vessels received Sandalwood oil (added the basal diet to reach an initial concentration of 100 μg/ml) four vessels received Javanol (added the basal diet to reach an initial concentration of 100 μg/ml) the remaining vessels were controls. Volatile fatty acids, methane and bacterial numbers were measured on days 18 and 19 of the experiment. On day 19, Listeria inocula was added and it numbers traced over the last 24 hr of the experiment."}}, "note": "Values joined by “and” are separate entries in the source; they are usually repeats but may differ in a detail not shown here. Identical values can stand only once.", "data": [{"smiles": "CC1(CO)CC1CC1CC2CC2(C)C1(C)C", "note": "(stereo not shown) [Javanol, (1-Methyl-2-(1,2,2-trimethylbicyclo[3.1.0]hex-3-ylmethyl)cyclopropyl)methanol]", "values": [{"measurement": "Listeria monocytogenes survival", "setting": "Listeria monocytogenes", "value": "not"}, {"measurement": "Acetate", "setting": "[1]; 5 μg/ml", "value": "2401 μmol/g of feed added"}, {"measurement": "Butyrate", "setting": "[1]; 5 μg/ml", "value": "538 μmol/g of feed added"}, {"measurement": "Methane", "setting": "[1]; 5 μg/ml", "value": "978 μmol/g of feed added"}, {"measurement": "Propionate", "setting": "[1]; 5 μg/ml", "value": "493 μmol/g of feed added"}, {"measurement": "TVFA", "setting": "[1]; 5 μg/ml", "value": "3432 μmol/g of feed added"}, {"measurement": "Acetate", "setting": "[1]; 50 μg/ml", "value": "2622 μmol/g of feed added"}, {"measurement": "Butyrate", "setting": "[1]; 50 μg/ml", "value": "593 μmol/g of feed added"}, {"measurement": "Methane", "setting": "[1]; 50 μg/ml", "value": "904 μmol/g of feed added"}, {"measurement": "Propionate", "setting": "[1]; 50 μg/ml", "value": "524 μmol/g of feed added"}, {"measurement": "TVFA", "setting": "[1]; 50 μg/ml", "value": "3739 μmol/g of feed added"}, {"measurement": "Acetate", "setting": "[1]; 100 μg/ml", "value": "2504 μmol/g of feed added"}, {"measurement": "Butyrate", "setting": "[1]; 100 μg/ml", "value": "499 μmol/g of feed added"}, {"measurement": "Methane", "setting": "[1]; 100 μg/ml", "value": "859 μmol/g of feed added"}, {"measurement": "Propionate", "setting": "[1]; 100 μg/ml", "value": "542 μmol/g of feed added"}, {"measurement": "TVFA", "setting": "[1]; 100 μg/ml", "value": "3545 μmol/g of feed added"}, {"measurement": "Acetate", "setting": "[1]; 500 μg/ml", "value": "2045 μmol/g of feed added"}, {"measurement": "Butyrate", "setting": "[1]; 500 μg/ml", "value": "229 μmol/g of feed added"}, {"measurement": "Methane", "setting": "[1]; 500 μg/ml", "value": "744 μmol/g of feed added"}, {"measurement": "Propionate", "setting": "[1]; 500 μg/ml", "value": "833 μmol/g of feed added"}, {"measurement": "TVFA", "setting": "[1]; 500 μg/ml", "value": "3107 μmol/g of feed added"}, {"measurement": "CH4 (mean of rep a-c)", "setting": "[2]; 150 ug/30 ml in 200 ul DMSO", "value": 913.6635, "unit": "µmol/g"}, {"measurement": "CH4", "setting": "[2]; 150 ug/30 ml in 200 ul DMSO", "value": "956.9591 µmol/g and 888.4071 µmol/g and 895.6242 µmol/g"}, {"measurement": "CH4 (mean of rep a-c)", "setting": "[2]; 150 ug/30 ml in 200 ul ETOH", "value": 1373.522, "unit": "µmol/g"}, {"measurement": "CH4", "setting": "[2]; 150 ug/30 ml in 200 ul ETOH", "value": "1403.051 µmol/g and 1381.609 µmol/g and 1335.905 µmol/g"}, {"measurement": "CH4 (mean of rep a-c)", "setting": "[2]; 15000 ug/30 ml in 200 ul DMSO", "value": 605.2838, "unit": "µmol/g"}, {"measurement": "CH4", "setting": "[2]; 15000 ug/30 ml in 200 ul DMSO", "value": "647.283 µmol/g and 563.0216 µmol/g and 605.5467 µmol/g"}, {"measurement": "CH4 (mean of rep a-c)", "setting": "[2]; 15000 ug/30 ml in 200 ul ETOH", "value": 1158.255, "unit": "µmol/g"}, {"measurement": "CH4", "setting": "[2]; 15000 ug/30 ml in 200 ul ETOH", "value": "1145.346 µmol/g and 1230.103 µmol/g and 1099.314 µmol/g"}, {"measurement": "methane compared to the control experiments", "setting": "rumen fluid", "value": "significantly decreased"}, {"measurement": "48 h DM degradation (%)", "setting": "[3]", "value": 33.6, "unit": "%"}, {"measurement": "Acetate", "setting": "[3]", "value": 23.9, "unit": "mmol/day"}, {"measurement": "Bacteria counts Cellulolytic", "setting": "[3]", "value": "1.9e+06", "unit": "mL⁻¹"}, {"measurement": "Bacteria counts Total", "setting": "[3]", "value": "4.9e+09", "unit": "mL⁻¹"}, {"measurement": "Butyrate", "setting": "[3]", "value": 4.4, "unit": "mmol/day"}, {"measurement": "Methane production", "setting": "[3]", "value": "decreased"}, {"measurement": "Propionate", "setting": "[3]", "value": 16.7, "unit": "mmol/day"}, {"measurement": "Total VFA", "setting": "[3]", "value": 45.0, "unit": "mmol/day"}, {"measurement": "VFA production", "setting": "[3]", "value": "no effect"}, {"measurement": "CH4", "setting": "[3]; days 18 and 19", "value": 2.51, "unit": "mmol/day"}]}]}
